{
  "source": "patent US20210128690A1",
  "about": "“METHODS OF ADMINISTERING HEPCIDIN” (La Jolla Pharmaceutical Company, priority 2016, published 2021)",
  "test": "hepcidin administration to human subjects (patients with sickle cell disease or hereditary hemochromatosis)",
  "format": "in vivo",
  "conditions": "doses of 1 mg hepcidin and 5 mg hepcidin",
  "description": "FIG. 1 illustrates the change in serum ferritin levels at baseline and 8 days post hepcidin administration in two patients with sickle cell disease and a high ferritin serum baseline.\nEfficacy at this dosing was not expected based on animal studies in mice, rats, and dogs.",
  "data": [
    {"smiles": "CC[C@H](C)[C@@H]1NC(=O)[C@@H](NC(=O)[C@@H](NC(=O)[C@@H]2CCCN2C(=O)[C@H](Cc2ccccc2)NC(=O)[C@H](Cc2c[nH]cn2)NC(=O)[C@@H](NC(=O)[C@@H](N)CC(=O)O)[C@@H](C)O)[C@@H](C)CC)CSSC[C@@H](C(=O)N[C@@H](CCCCN)C(=O)N[C@H](C(=O)O)[C@@H](C)O)NC(=O)[C@@H]2CSSC[C@@H]3NC(=O)[C@@H]4CSSC[C@H](NC(=O)[C@H](Cc5ccccc5)NC1=O)C(=O)N[C@@H](CSSC[C@H](NC(=O)[C@H](CCCCN)NC(=O)[C@H](CO)NC(=O)[C@H](CCCNC(=N)N)NC(=O)[C@H](Cc1c[nH]cn1)NC3=O)C(=O)NCC(=O)N[C@@H](CCSC)C(=O)N2)C(=O)NCC(=O)N4", "note": "[hepcidin]", "values": [
      {"measurement": "efficacy in human subjects", "result": "display efficacy"}
    ]}
  ]
}
